Measurements published in ChEMBL document CHEMBL2016477, “Pimarane diterpenes from the fungus Epicoccum sp. HS-1 associated with Apostichopus japonicus” (Bioorg Med Chem Lett, 2012).
Converted amounts (≈) assume the structure as drawn.

How the values were obtained:
[1] = tested on: KB; assay: Cytotoxicity against human KB cells; assay type: functional, cell-based
[2] = Cytotoxicity against multidrug resistant human KBv200 cells expressing p-glycoprotein; assay type: functional, cell-based

Row | SMILES | IC50 [1] | IC50 [2]
1 | C=C[C@]1(C)C=C2C(=O)C(O)=C3C(C)(C)CCC[C@]3(C)[C@@]2(O)CC1 | 20.7 µg/mL (≈ 65.5 µM) | 14.5 µg/mL (≈ 45.7 µM)
2 | C=C[C@]1(C)C=C2[C@@H](O)C[C@H]3C(C)(C)CCC[C@]3(C)[C@@]2(O)CC1 | > 100 µg/mL | > 100 µg/mL
3 | C=C[C@]1(C)C=C2C(=O)[C@@]3(O)OC[C@@]4(CCCC(C)(C)[C@@]43O)[C@@]2(O)[C@H](O)C1 [DIAPORTHINS B] | 3.86 µg/mL (≈ 10.6 µM) | 6.52 µg/mL (≈ 17.9 µM)
